Results published in patent publication US20250275953A1, “VODOBATINIB FOR REDUCING PROGRESSION OF PARKINSON'S DISEASE” (Sun Pharma Advanced Research Company Ltd., priority 2022, published 2025).
Entries after “also recorded” stand apart in the source; their conditions may differ.

Legend:
[1] = target: Abl (Homo sapiens, UniProt P00519); test: Biochemical kinase assay, native Abl (radiometric substrate phosphorylation)
Experimental: (§1) Conventional biochemical kinase assays, using radioactivity and fluorescence as readouts, were used to derive half maximal-inhibitory concentrations (IC50) values.
Inhibition of c-Abl kinase activity by vodobatinib was determined in a radiometric detection assay using γ-33P-labeled-ATP. […] (Abl substrate peptide), 10 mM magnesium acetate, and [γ-33P-ATP]. The reaction was initiated by addition of an MgATP mix. Following incubation for 40 minutes at room temperature, the reaction was stopped by addition of 3% phosphoric acid solution. The radiolabeled substrate was separated onto a P30 filtermat, which was washed with 75 mM phosphoric acid and methanol, and dried, following which radioactivity incorporated into the substrate was determined by scintillation counting. Similar assessments were also carried out using recombinant murine c-Abl enzyme using the identical assay format as described above.

[2] = Safety and tolerability, Parkinson's disease patients (NCT02970019); assay type: in vivo, human; details: for Possibly related AEs by subject: daily for 14 days
Source text: Of these, 44 subjects completed the study. An additional 10 subjects were enrolled in the open label part of the study, of these, one subject was discontinued due to an AE of vomiting.
Safety population was comprised of 48 subjects (not including those in the open label cohorts) and PK population was comprised of 36 subjects from double blind part and 10 subjects from open label part of the study. No subjects were discontinued from the study due to protocol deviation.
Study NCT02970019 was a multi-center safety and tolerability study of vodobatinib in 60 subjects with Parkinson's Disease (diagnosed with PD according to the Brain Bank criteria of the United Kingdom Parkinson's Disease Society) who were randomized to receive placebo or various daily doses of vodobatinib for 14 days in a parallel assignment design with quadruple masking (participant, care provider, investigator, and outcomes assessor.) In study NCT02970019, consecutive cohorts of up to eight subjects received once-daily doses of 6, 12, 18, 24, 48, 96, 192, or 384 mg of study drug for 14 days, with six subjects in each cohort on vodobatinib and two subjects in each cohort on placebo. An alternating panel design was used such that subjects in the 6 and 18 mg cohorts were the same, and subjects in the 12 and 24 mg cohorts were the same, thus yielding 48 total individuals enrolled in the eight cohorts. There was a wash-out period of 14 days between each were studied in sequential ascending dose cohorts. In parallel to the double-blind cohorts, up to four subjects per dose cohort were enrolled in an open-label study of vodobatinib to receive 24, 48 or 96 mg once-daily doses of for 14 days. These subjects underwent lumbar puncture to collect CSF on Day 1, and 2-3 h after the last morning dose on Day 14. PK blood draws (for both double-blind and open label) were collected at pre-dose (˜30 min) and at 0.5, 1, 2, 4, 8, 12 and 24 h post-dose on Days 1 and 14.

[3] = target: Abl (E255K) (Homo sapiens, UniProt P00519, E255K); test: Biochemical kinase assay, mutant Abl
Source text: as §1

[4] = target: Abl (F317I) (Homo sapiens, UniProt P00519, F317I); test: Biochemical kinase assay, mutant Abl
Source text: as §1

[5] = target: Abl (M351T) (Homo sapiens, UniProt P00519, M351T); test: Biochemical kinase assay, mutant Abl
Source text: as §1

[6] = target: Abl (Y253F) (Homo sapiens, UniProt P00519, Y253F); test: Biochemical kinase assay, mutant Abl
Source text: as §1

[7] = target: Abl (H396P) (Homo sapiens, UniProt P00519, H396P); test: Biochemical kinase assay, mutant Abl
Source text: as §1

[8] = target: Abl (Q252H) (Homo sapiens, UniProt P00519, Q252H); test: Biochemical kinase assay, mutant Abl
Source text: as §1

[9] = target: Abl (F317L) (Homo sapiens, UniProt P00519, F317L); test: Biochemical kinase assay, mutant Abl
Source text: as §1

Cc1ccc(C(=O)NNC(=O)c2c(C)cccc2Cl)cc1C#Cc1cnc2ccccc2c1 [N′-(2-chloro-6-methylbenzoyl)-4-methyl-3-[2-(3-quinolyl)ethynyl]-benzohydrazide]
times more potent than nilotinib ([1]; 0.9 nM vs 20 nM): 20
IC50 ([1]; Table 1): 900 pM
n/N (number of AEs per number of subjects in dose group) ([2]; 6 mg DB): 6 mg DB (5/8)
Possibly related AEs by subject ([2]; 6 mg DB, listed as Vodobatinib): Increased appetite, feet & ankle weakness, infraorbital puffiness,; also recorded: increased tremor and dry eyes
n/N (number of AEs per number of subjects in dose group) ([2]; 12 mg DB): 12 mg DB (3/8)
Possibly related AEs by subject ([2]; 12 mg DB, listed as Vodobatinib): Light-headedness; also recorded: Decreased balance & decreased gait
n/N (number of AEs per number of subjects in dose group) ([2]; 18 mg DB): 18 mg DB (3/6)
Possibly related AEs by subject ([2]; 18 mg DB): New onset atrial fibrillation and orthostasis (moderate severity)
n/N (number of AEs per number of subjects in dose group) ([2]; 24 mg DB): 24 mg DB (1/8)
Possibly related AEs by subject ([2]; 24 mg DB): None
n/N (number of AEs per number of subjects in dose group) ([2]; 24 mg OL): 24 mg OL (3/3)
Possibly related AEs by subject ([2]; 24 mg OL, listed as Vodobatinib): Vertigo, headache, nausea, weakness, vomiting (all moderate
n/N (number of AEs per number of subjects in dose group) ([2]; 48 mg DB): 48 mg DB (2/8)
Possibly related AEs by subject ([2]; 48 mg DB): None
n/N (number of AEs per number of subjects in dose group) ([2]; 96 mg DB): 96 mg DB (2/8)
Possibly related AEs by subject ([2]; 96 mg DB, listed as Vodobatinib): Abdominal pain and soft stool; also recorded: Brain fog, worsening of right lower leg cramps
n/N (number of AEs per number of subjects in dose group) ([2]; 96 mg OL): 96 mg OL (2/4)
Possibly related AEs by subject ([2]; 96 mg OL, listed as Vodobatinib): Dry eyes; also recorded: Worsening of muscle cramps (“probably related”)
n/N (number of AEs per number of subjects in dose group) ([2]; 192 mg DB): 192 mg DB (3/8)
Possibly related AEs by subject ([2]; 192 mg DB, listed as Vodobatinib): Mild rash, epigastric pain; also recorded: Somnolence, worsening of left upper extremities resting tremor; also recorded: Erythematous, pruritic rash on torso and head
subjects discontinued due to AEs ([2]; 192 mg, 384 mg (double-blind), 24 mg (open-label)): Three
changes in laboratory values ([2]; PD patients): no clinically significant drug related changes
changes in the QT interval ([2]; PD patients): no drug-related changes
overall safety and tolerability ([2]; PD patients): acceptable safety and tolerability
changes in laboratory values ([2]; PD patients, listed as vodobatinib): no clinically significant drug-related changes
number of TEAEs, overall ([2]; PD subjects, 14 days): 63
subjects reporting TEAEs, overall ([2]; PD subjects, 14 days): 32
Most common treatment related TEAEs (>1 subject) ([2]; double-blind part): rash, abdominal pain and tremor
number of TEAEs ([2]; double-blind part): 42
subjects reporting TEAEs ([2]; double-blind part): Twenty-three
subjects reporting TEAEs ([2]; double-blind, 6 mg cohort): 3
subjects reporting TEAEs ([2]; double-blind, 12 mg cohort): 3
subjects reporting TEAEs ([2]; double-blind, 18 mg cohort): 2
subjects reporting TEAEs ([2]; double-blind, 24 mg cohort): one
subjects reporting TEAEs ([2]; double-blind, 48 mg cohort): one
subjects reporting TEAEs ([2]; double-blind, 96 mg cohort): 2
subjects reporting TEAEs ([2]; double-blind, 192 mg cohort): 3
subjects reporting TEAEs ([2]; double-blind, 384 mg cohort): 5
most severe TEAE ([2]; one subject, 48 mg group, treatment unrelated, resolved): asthenia of grade 3 severity
number of TEAEs ([2]; open-label part): 21
subjects reporting TEAEs ([2]; open-label part): Nine
number of TEAEs ([2]; open-label, 24 mg cohort (3 subjects)): 10
number of TEAEs ([2]; open-label, 48 mg cohort (3 subjects)): 6
number of TEAEs ([2]; open-label, 96 mg cohort (3 subjects)): 5
number of treatment related TEAEs ([2]; overall): 35
subjects reporting treatment related TEAEs ([2]; overall): Twenty-one
inhibition [3]: potently inhibit
inhibition [4]: potently inhibit
IC50 [5]: 800 pM
IC50 [6]: 1000 pM
IC50 [7]: 500 pM
IC50 [8]: 800 pM
inhibition [9]: potently inhibit
